Literature values, collected in patent publication US6800616B2, “Treatment of HIV infections” (SuperGen, Inc., priority 1998, dated 2004).

What was measured:
T cells, CD4+ subset = settings: patients given DCF, FLU or 2CDA
[1] = biological target: T1, adenosine deaminase (ADA) (Homo sapiens, UniProt P00813)
T1 sequence (P00813 1-363): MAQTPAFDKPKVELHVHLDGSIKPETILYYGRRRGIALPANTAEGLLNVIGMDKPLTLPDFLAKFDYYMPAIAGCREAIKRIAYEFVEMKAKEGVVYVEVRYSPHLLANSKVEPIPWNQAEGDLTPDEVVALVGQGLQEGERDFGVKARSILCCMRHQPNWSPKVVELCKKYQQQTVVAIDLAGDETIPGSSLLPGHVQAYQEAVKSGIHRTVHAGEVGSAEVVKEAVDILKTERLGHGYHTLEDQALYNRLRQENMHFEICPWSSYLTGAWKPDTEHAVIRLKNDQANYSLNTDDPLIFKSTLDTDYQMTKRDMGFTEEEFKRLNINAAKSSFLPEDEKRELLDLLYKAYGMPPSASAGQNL

[2] = system: resting normal human lymphocytes

Row | SMILES | frequency of opportunistic infections (T cells, CD4+ subset) | lymphopenia upon administration (T cells, CD4+ subset) | resistance to ADA [1] | toxicity to resting lymphocytes [2]
1 | OC[C@H]1O[C@@H](n2cnc3c2NC=NC[C@H]3O)C[C@@H]1O [DCF, 2′-deoxycoformycin] | increased frequency of opportunistic infections | prolonged lymphopenia predominating in T cells, especially in the CD4+ subset |  | 
2 | Nc1nc(Cl)nc2c1ncn2[C@H]1C[C@H](O)[C@@H](CO)O1 [2CDA, 2-chloro-2′-deoxyadenosine] | increased frequency of opportunistic infections | prolonged lymphopenia predominating in T cells, especially in the CD4+ subset | rather resistant to the enzyme | selectively harm resting normal human lymphocytes
3 | Nc1nc(F)nc2c1ncn2[C@@H]1O[C@H](COP(=O)(O)O)[C@@H](O)[C@@H]1O [FLU, fludarabine monophosphate] | increased frequency of opportunistic infections | prolonged lymphopenia predominating in T cells, especially in the CD4+ subset | rather resistant to the enzyme | 
